Assay results: ChEMBL document CHEMBL1144226, “Design and synthesis of 2-amino-isoxazolopyridines as Polo-like kinase inhibitors” (Bioorg Med Chem Lett, 2008)
pIC50: −log10 of the molar value. Activity calls are given as the source filed them. The rule behind the calls is not given here.

Key:
cells = conditions: Homo sapiens, HCT-116
[1] = molecular target: Serine/threonine-protein kinase PLK1 (Homo sapiens, UniProt P53350)
[2] = molecular target: Serine/threonine-protein kinase PLK2 (Homo sapiens, UniProt Q9NYY3)
Sequence of Serine/threonine-protein kinase PLK2 (Q9NYY3 whole entry): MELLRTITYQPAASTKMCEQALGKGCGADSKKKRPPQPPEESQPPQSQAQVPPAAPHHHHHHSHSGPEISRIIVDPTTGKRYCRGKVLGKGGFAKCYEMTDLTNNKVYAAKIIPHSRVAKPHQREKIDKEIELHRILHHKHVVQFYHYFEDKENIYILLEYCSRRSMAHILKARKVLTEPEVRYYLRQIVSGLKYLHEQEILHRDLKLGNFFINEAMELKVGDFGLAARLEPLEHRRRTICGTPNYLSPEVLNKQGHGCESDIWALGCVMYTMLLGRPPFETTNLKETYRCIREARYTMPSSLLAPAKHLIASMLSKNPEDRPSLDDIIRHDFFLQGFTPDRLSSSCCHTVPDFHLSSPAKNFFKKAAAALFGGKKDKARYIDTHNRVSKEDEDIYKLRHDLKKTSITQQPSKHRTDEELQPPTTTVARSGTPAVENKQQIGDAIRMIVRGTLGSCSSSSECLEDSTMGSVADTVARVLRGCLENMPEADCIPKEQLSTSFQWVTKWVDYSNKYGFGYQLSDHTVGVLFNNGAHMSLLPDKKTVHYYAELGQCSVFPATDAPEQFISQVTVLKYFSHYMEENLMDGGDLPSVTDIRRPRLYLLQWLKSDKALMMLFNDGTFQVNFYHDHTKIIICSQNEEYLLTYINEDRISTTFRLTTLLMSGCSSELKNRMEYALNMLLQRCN

[3] = molecular target: Serine/threonine-protein kinase PLK3 (Homo sapiens, UniProt Q9H4B4)
Sequence of Serine/threonine-protein kinase PLK3 (Q9H4B4 whole entry): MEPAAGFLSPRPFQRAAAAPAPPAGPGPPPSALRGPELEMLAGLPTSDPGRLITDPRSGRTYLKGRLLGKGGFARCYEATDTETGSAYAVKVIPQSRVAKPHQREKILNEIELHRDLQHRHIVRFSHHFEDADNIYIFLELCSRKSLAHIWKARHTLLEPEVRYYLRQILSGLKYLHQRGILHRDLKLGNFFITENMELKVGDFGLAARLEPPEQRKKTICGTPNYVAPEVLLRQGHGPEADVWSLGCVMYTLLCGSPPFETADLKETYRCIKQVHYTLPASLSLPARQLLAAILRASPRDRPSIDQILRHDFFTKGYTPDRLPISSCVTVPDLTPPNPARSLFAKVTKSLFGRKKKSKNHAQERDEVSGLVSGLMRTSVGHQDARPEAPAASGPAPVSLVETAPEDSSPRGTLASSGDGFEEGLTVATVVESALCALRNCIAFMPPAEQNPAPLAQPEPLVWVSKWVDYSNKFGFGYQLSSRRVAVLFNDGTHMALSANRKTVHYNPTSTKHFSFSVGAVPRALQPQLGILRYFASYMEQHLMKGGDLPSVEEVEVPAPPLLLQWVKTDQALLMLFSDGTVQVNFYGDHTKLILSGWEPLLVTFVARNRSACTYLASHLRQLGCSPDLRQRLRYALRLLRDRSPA

HCT-116 = assay: Effect on morphology in human HCT 116 cells assessed as monopolar spindle phenotype; assay type: functional, cell-based

Sequence of Serine/threonine-protein kinase PLK1 (P53350 whole entry): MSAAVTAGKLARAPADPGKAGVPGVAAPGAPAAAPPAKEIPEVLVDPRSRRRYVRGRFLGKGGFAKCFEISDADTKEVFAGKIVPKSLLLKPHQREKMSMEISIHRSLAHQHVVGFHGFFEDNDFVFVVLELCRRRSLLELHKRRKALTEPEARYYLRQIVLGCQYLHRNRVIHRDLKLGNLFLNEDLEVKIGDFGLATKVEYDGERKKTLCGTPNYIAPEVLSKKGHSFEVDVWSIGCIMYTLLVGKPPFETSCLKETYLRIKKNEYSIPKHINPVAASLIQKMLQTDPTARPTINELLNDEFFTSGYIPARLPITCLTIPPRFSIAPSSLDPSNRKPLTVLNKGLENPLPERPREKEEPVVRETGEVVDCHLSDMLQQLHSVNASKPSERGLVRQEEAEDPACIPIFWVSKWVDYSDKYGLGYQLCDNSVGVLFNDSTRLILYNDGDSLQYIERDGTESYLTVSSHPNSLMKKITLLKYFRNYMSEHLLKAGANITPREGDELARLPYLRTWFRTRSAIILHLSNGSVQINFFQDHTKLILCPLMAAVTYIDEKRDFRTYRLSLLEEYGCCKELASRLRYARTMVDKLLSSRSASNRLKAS

pIC50 (cells)	SMILES	also measured
4.99	C[C@H](Nc1cc2c(-c3cc(Cl)cc(CCCO)c3)noc2cn1)c1ccccc1	
< 4.70	Cc1cc(C)cc(-c2noc3cnc(N[C@@H](C)c4ccccc4)cc23)c1	
5.17	Cc1cccc(-c2noc3cnc(N[C@@H](C)c4ccccc4)cc23)c1	
	C[C@H](Nc1cc2c(Cc3ccccc3)noc2cn1)c1ccccc1	pIC50 [1]: < 4.70
< 4.70	COc1ccc(-c2noc3cnc(N[C@@H](C)c4ccccc4)cc23)cc1OC	
< 4.70	Cc1ccc(-c2noc3cnc(N[C@@H](C)c4ccccc4)cc23)cc1	
5.08	C[C@H](Nc1cc2c(-c3cc(Cl)cc(CCC(N)=O)c3)noc2cn1)c1ccccc1	Activity (HCT-116): Active
< 4.70	C[C@H](Nc1cc2c(-c3ccccc3)noc2cn1)c1ccccc1	
< 4.70	C[C@H](Nc1cc2c(-c3cccc(Cl)c3)noc2cn1)c1ccccc1	

SMILES	pIC50 (cells)	also measured
C[C@H](Nc1cc2c(-c3ccc4c(c3)OCO4)noc2cn1)c1ccccc1	5.14	pIC50 [1]: 6.67; pIC50 [2]: 8.40; pIC50 [3]: 7.62
